This is an account of results in patent publication US20250035576A1, “AUTOMATED OXYGEN-DEPENDENT BLOOD FUNCTION MEASUREMENT SYSTEMS AND METHODS” (FLORIDA ATLANTIC UNIVERSITY BOARD OF TRUSTEES, priority 2023, published 2025).

The structures appear in SMILES notation. Entries after “also recorded” stand apart in the source; their conditions may differ.

Experiment [1] deals with sickle cells. The experiment in a line: Microfluidic assay of the efficacy of an anti-sickling oxygen modulator on patient samples. It counts as cell-based, human. To be noted: blood samples of 5 patients; FIG. 6D. From the text:
This, however, could not be detected using conventional hematological assay, such as Hb electrophoresis or HPLC.

The subject of the next experiment is fetal hemoglobin (HbF). To be noted: hematological response to HU, literature [38]; cited from earlier work.
Experiment [2] relates to sickle cells. Put plainly: Microfluidic cell sickling assay (kinetics of cell sickling) under controlled low O2 tension, cell-imaging analysis. It counts as cell-based, human. The conditions noted are these: sickle cells from patients on HU treatment vs off HU; PaO2 15 mm Hg; FIG. 6A. The method, then:
(§1) A study was conducted to develop and evaluate the exemplary system and method comprising microfluidic assays of sickle cell functional properties to provide quantitative assessments of disease heterogeneity and severity. A microfluidic strategy for on-chip O2 control was developed, which is critical to measure O2-dependent sickle cell functional properties. This method utilizes gas permeability of thin PDMS film (˜150 μm thick) that enables rapid diffusion of O2 at a specific PaO2 value from the gas channel to the cell channel. […]
(§2) Cell sickling events induced by exposing sickle cells to a transient hypoxia (e.g., reduce the atmospheric (atm) PaO2 to a low O2 tension level) are measured under stationary condition (FIG. 5A). […] Sickle cell rheology (deformability and occlusion) are measured under flow condition for 60 s, where sickle cells with extended delay time in HbS polymerization can escape the micro-slits but those containing rigid HbS fibers (undissolved HbS or hypoxia induced HbS fibers) lose their deformability and become trapped at the micro-slits (FIG. 5B). These two aspects of sickle cell behavior measured under controlled O2 tension (in exposure to testing PaO2 15 mm Hg briefly for 60 s) provided quantitative cell functional assessment, which show strong linear correlation to patient's HbS level, as obtained from standard HPLC (FIG. 5C and FIG. 5D). […]

Experiment [3] relates to sickle cells. Put plainly: Microfluidic sickle cell rheology assay (occlusion/obstruction at micro-slits) under controlled low O2 tension. To be noted: sickle cells from patients with HU treatment vs without; PaO2 15 mm Hg, flow 60 s; FIG. 6B. The class given is cell-based, human. On the procedure: as §1, §2

`O=Cc1ccc(CO)o1` [5HMF, 5-(hydroxymethyl) furfural]: the “dose dependence of anti-sickling efficacy, patient-specific response” value in the experiment on sickle cells [1] is on record as “patient-specific response; also recorded: dosedependence is similar among 5 patients, but significant variations exist”.
Turning to `NC(=O)NO` [HU, hydroxyurea], the “HbF level in some patients” value in the experiment on fetal hemoglobin (HbF) was “up to 40%”. The “delay time of cell sickling events” value with sickle cells [2] is reported as “significantly extended”. Moreover, the “occlusion fraction (obstruction in micro-slits)” value with sickle cells [3] is “much less obstruction”.
